The target in one assay is T1, FLT3-ITD (Homo sapiens, UniProt P36888).
T1 sequence (P36888 1-993): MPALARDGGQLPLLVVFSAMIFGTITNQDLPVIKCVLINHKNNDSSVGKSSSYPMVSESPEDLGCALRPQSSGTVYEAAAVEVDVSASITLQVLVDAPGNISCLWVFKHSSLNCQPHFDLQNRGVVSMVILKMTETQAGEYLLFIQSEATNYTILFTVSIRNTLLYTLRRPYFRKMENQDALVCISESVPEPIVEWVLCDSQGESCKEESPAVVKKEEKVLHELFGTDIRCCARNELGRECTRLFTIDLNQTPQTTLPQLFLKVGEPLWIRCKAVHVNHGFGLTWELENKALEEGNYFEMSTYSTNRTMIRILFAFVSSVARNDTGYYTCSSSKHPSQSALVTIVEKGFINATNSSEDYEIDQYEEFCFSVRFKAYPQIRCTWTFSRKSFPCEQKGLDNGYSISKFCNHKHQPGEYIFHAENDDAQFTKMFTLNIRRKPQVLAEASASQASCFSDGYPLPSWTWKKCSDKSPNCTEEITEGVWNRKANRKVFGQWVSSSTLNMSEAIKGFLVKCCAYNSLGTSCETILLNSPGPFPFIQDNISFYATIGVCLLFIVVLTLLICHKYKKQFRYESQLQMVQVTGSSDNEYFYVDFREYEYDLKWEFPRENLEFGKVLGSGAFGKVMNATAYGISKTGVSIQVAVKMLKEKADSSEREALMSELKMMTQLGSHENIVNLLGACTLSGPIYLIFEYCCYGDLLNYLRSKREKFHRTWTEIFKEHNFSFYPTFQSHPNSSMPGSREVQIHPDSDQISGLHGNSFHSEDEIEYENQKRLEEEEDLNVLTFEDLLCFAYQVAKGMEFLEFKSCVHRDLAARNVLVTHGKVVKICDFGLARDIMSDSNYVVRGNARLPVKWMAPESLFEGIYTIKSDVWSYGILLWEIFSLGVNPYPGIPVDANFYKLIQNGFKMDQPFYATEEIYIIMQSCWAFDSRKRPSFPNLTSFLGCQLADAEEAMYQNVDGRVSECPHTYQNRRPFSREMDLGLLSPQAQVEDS
Nature of the assay: AlphaScreen kinase assay with recombinant enzyme, FLT3-ITD. The format is biochemical. The note with it: 8pt; read-out: FLT3_ITD 8pt: IC50. As to the method: In order to determine the effect of compounds on FLT3 catalytic activity, kinase assays using recombinant enzymes and AlphaScreen® technology have been established. The catalytic activity of c-kit activity was also measured to determine selectivity of the compounds. When the kinases are catalytically active, they phosphorylate a biotinylated peptide substrate on tyrosine residues. Using AlphaScreen® technology, the ability of the compounds to affect the catalytic activity of the kinases can be measured quantitatively. The peptide substrate is immobilized by the AlphaScreen® Streptavidin Donor beads and, upon phosphorylation by a tyrosine kinase, can bind to AlphaScreen® Anti-Phosphotyrosine (PY20) Acceptor beads. Upon excitation of these beads with laser light at 680 nm, singlet oxygen is produced. This singlet oxygen is rapidly quenched, unless the AlphaScreen® Anti-Phosphotyrosine (PY20) Acceptor beads are in close proximity, in which case a proximity signal can be measured at 580 nm. In the presence of catalytic activity, there is a very strong proximity signal. Selective kinase inhibitors affect a decrease in this proximity signal through a decrease in tyrosine phosphorylation of the peptide substrate.
The assay was performed as summarized below.
Poly (Glu4-Tyr) Peptide, biotin conjugate [Biotin-GG(EEEEY)10EE] (SEQ ID NO: 4)
Final concentration=30 nM
Final concentration for IC50 determination=10 μM (FLT3-D835Y or FLT3-ITD) or 100 μM (c-KIT)
AlphaScreen® Phosphotyrosine (PY20) Assay Kit
Final concentration=10 μg/mL
Dilute compounds in DMSO to 20× final concentration.
Add 1 μl of compound to each well of 384 well reaction plate (Perkin Elmer #6005359).
Mix enzyme and Poly (Glu4-Tyr) Peptide substrate at 1.33× final concentration in assay buffer.
Mix ATP at 5× final concentration in assay buffer.
Add 15 μL enzyme/substrate mixture to the reaction plate.
Add 4 μL of ATP to the reaction plate.
Mix Streptavidin Donor beads at 6× final concentration in Stop/Detection buffer.
Add 5 μL Streptavidin Donor beads to the reaction plate. Centrifuge 1 minute, shake to mix, and incubate at room temperature for 20 minutes.
Mix Anti-Phosphotyrosine (PY20) Acceptor beads at 6× final concentration in Stop/Detection buffer.
Add 5 μL Anti-Phosphotyrosine (PY20) beads to the reaction plate.
Centrifuge 1 minute, shake to mix, and incubate at room temperature for 60 minutes.
Read plate on Wallac EnVision™ 2103 Multilabel Reader.

The test system of assay [1] is MOLM-14 D835Y cells, FLT3 ITD and FLT3 D835Y. Nature of the assay: Cell proliferation assay (CellTiter-Glo), MOLM-14 D835Y. The following applies: Homo sapiens, 72 h, 3d-Growth, GMean. Format: cell-based. The essentials: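 Three-day growth at 37 °C, 5% CO2 under compound (1 μM top final, 1:3 dilutions, eight points, 0.2% DMSO), read as ATP luminescence by CellTiter-Glo for IC50. Cells: MOLM-14 with FLT3 ITD plus D835Y or F691L, and IL-3-deprived Ba/F3 transfected with FLT3 ITD/D835Y, 1×10^4 per well.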

Consider `N#C[C@H]1CCN(C(=O)c2cccc(-c3cnc4[nH]c(-c5ccccc5)cc4c3)n2)C1` [Compound P-0117, (3S)-1-[6-(2-phenyl-1H-pyrrolo[2,3-b]pyridin-5-yl)pyridine-2-carbonyl]pyrrolidine-3-carbonitrile], for which the half-inhibitory concentration (IC50) (on FLT3-ITD; in assay [1]) was 0.0001 to 10 µM each time.
Consider `CC(C)(C#N)NC(=O)c1cccc(-c2cnc3[nH]c(-c4ccccc4)cc3c2)n1` [Compound P-0118, N-(1-cyano-1-methyl-ethyl)-6-(2-phenyl-1H-pyrrolo[2,3-b]pyridin-5-yl)pyridine-2-carboxamide], for which the half-maximal inhibitory concentration (IC50) (at FLT3-ITD; in assay [1]) was 0.0001 to 10 µM throughout.
Take `CN(CCC#N)C(=O)c1cccc(-c2cnc3[nH]c(-c4ccccc4)cc3c2)n1` [Compound P-0119, N-(2-cyanoethyl)-N-methyl-6-(2-phenyl-1H-pyrrolo[2,3-b]pyridin-5-yl)pyridine-2-carboxamide]: the IC50 (at FLT3-ITD; in assay [1]) was 0.0001 to 10 µM in each case.
Take `N#CC1CCN(C(=O)c2cccc(-c3cnc4[nH]c(C5=CCCCC5)cc4c3)n2)C1` (centres unmarked) [Compound P-0120, 1-[6-[2-(cyclohexen-1-yl)-1H-pyrrolo[2,3-b]pyridin-5-yl]pyridine-2-carbonyl]pyrrolidine-3-carbonitrile]: the IC50 (at FLT3-ITD; in assay [1]) was 0.0001 to 10 µM in each case.
`N#C[C@@H]1CCN(C(=O)c2cccc(-c3cnc4[nH]c(-c5ccccc5)cc4c3)n2)C1` [Compound P-0122, (3R)-1-[6-(2-phenyl-1H-pyrrolo[2,3-b]pyridin-5-yl)pyridine-2-carbonyl]pyrrolidine-3-carbonitrile]: the IC50 (on FLT3-ITD; in assay [1]) was 0.0001 to 10 µM in each case.
For the molecule `CC(C)(C#N)CNC(=O)c1cccc(-c2cnc3[nH]c(C4=CCCCC4)cc3c2)n1` [Compound P-0123, N-(2-cyano-2-methyl-propyl)-6-[2-(cyclohexen-1-yl)-1H-pyrrolo[2,3-b]pyridin-5-yl]pyridine-2-carboxamide], the half-maximal inhibitory concentration (IC50) (on FLT3-ITD; in assay [1]) was 0.0001 to 10 µM throughout.
For `N#CCCNC(=O)c1cccc(-c2cnc3[nH]c(-c4ccccc4)c(Cl)c3c2)n1` [Compound P-0125, 6-(3-chloro-2-phenyl-1H-pyrrolo[2,3-b]pyridin-5-yl)-N-(2-cyanoethyl)pyridine-2-carboxamide], the IC50 (at FLT3-ITD; in assay [1]) was 0.0001 to 10 µM each time.
`CC(C)(C#N)CNC(=O)c1cccc(-c2cnc3[nH]c(-c4ccccc4)c(Br)c3c2)n1` [Compound P-0126, 6-(3-bromo-2-phenyl-1H-pyrrolo[2,3-b]pyridin-5-yl)-N-(2-cyano-2-methyl-propyl)pyridine-2-carboxamide]: the IC50 (on FLT3-ITD; in assay [1]) was 0.0001 to 10 µM each time.
For the molecule `CC(C)(C#N)CNC(=O)c1cccc(-c2cnc3[nH]c(-c4ccccc4)c(I)c3c2)n1` [Compound P-0127, N-(2-cyano-2-methyl-propyl)-6-(3-iodo-2-phenyl-1H-pyrrolo[2,3-b]pyridin-5-yl)pyridine-2-carboxamide], the IC50 (at FLT3-ITD; in assay [1]) was 0.0001 to 10 µM throughout.
For the molecule `Cc1cc(C#N)ccc1-c1cc2cc(-c3cccc(C(=O)N4CCC(C#N)C4)n3)cnc2[nH]1` (centres unmarked) [Compound P-0130, 1-[6-[2-(4-cyano-2-methyl-phenyl)-1H-pyrrolo[2,3-b]pyridin-5-yl]pyridine-2-carbonyl]pyrrolidine-3-carbonitrile], the IC50 (on FLT3-ITD; in assay [1]) was 0.0001 to 10 µM in each case.
In the case of `CC1(C)CC=C(c2cc3cc(-c4cccc(C(=O)N5CCC(C#N)C5)n4)cnc3[nH]2)CC1` (centres unmarked) [Compound P-0131, 1-[6-[2-(4,4-dimethylcyclohexen-1-yl)-1H-pyrrolo[2,3-b]pyridin-5-yl]pyridine-2-carbonyl]pyrrolidine-3-carbonitrile], the concentration for half-maximal inhibition (IC50) (on FLT3-ITD; in assay [1]) was 0.0001 to 10 µM each time.
Turning to `N#CC1CCN(C(=O)c2cccc(-c3cnc4[nH]c(C5=CCOCC5)cc4c3)n2)C1` (centres unmarked) [Compound P-0132, 1-[6-[2-(3,6-dihydro-2H-pyran-4-yl)-1H-pyrrolo[2,3-b]pyridin-5-yl]pyridine-2-carbonyl]pyrrolidine-3-carbonitrile], the IC50 (on FLT3-ITD; in assay [1]) was 0.0001 to 10 µM throughout.
In the case of `N#Cc1cccc(-c2cc3cc(-c4cccc(C(=O)N5CCC(C#N)C5)n4)cnc3[nH]2)c1` (centres unmarked) [Compound P-0133, 1-[6-[2-(3-cyanophenyl)-1H-pyrrolo[2,3-b]pyridin-5-yl]pyridine-2-carbonyl]pyrrolidine-3-carbonitrile], the IC50 (at FLT3-ITD; in assay [1]) was 0.0001 to 10 µM each time.
Regarding `N#CC1CCN(C(=O)c2cccc(-c3cnc4[nH]c(-c5cnn(C(F)F)c5)cc4c3)n2)C1` (centres unmarked) [Compound P-0134, 1-[6-[2-[1-(difluoromethyl)pyrazol-4-yl]-1H-pyrrolo[2,3-b]pyridin-5-yl]pyridine-2-carbonyl]pyrrolidine-3-carbonitrile], the IC50 (on FLT3-ITD; in assay [1]) was 0.0001 to 10 µM in each case.
As for `CC(C)(C)OC(=O)N1CC=C(c2cc3cc(-c4cccc(C(=O)N5CCC(C#N)C5)n4)cnc3[nH]2)C1` (centres unmarked) [Compound P-0135, tert-butyl 3-[5-[6-(3-cyanopyrrolidine-1-carbonyl)-2-pyridyl]-1H-pyrrolo[2,3-b]pyridin-2-yl]-2,5-dihydropyrrole-1-carboxylate], the IC50 (at FLT3-ITD; in assay [1]) was 0.0001 to 10 µM each time.
Regarding `N#CC1CCN(C(=O)c2cccc(-c3cnc4[nH]c(C5=CCN(C(=O)C6CC6)C5)cc4c3)n2)C1` (centres unmarked) [Compound P-0136, 1-[6-[2-[1-(cyclopropanecarbonyl)-2,5-dihydropyrrol-3-yl]-1H-pyrrolo[2,3-b]pyridin-5-yl]pyridine-2-carbonyl]pyrrolidine-3-carbonitrile], the IC50 (on FLT3-ITD; in assay [1]) was 0.0001 to 10 µM each time.
Regarding `N#CC1(CNC(=O)c2cccc(-c3cnc4[nH]c(-c5ccccc5)cc4c3)n2)CC1` [Compound P-0137, N-[(1-cyanocyclopropyl)methyl]-6-(2-phenyl-1H-pyrrolo[2,3-b]pyridin-5-yl)pyridine-2-carboxamide], the IC50 (on FLT3-ITD; in assay [1]) was 0.0001 to 10 µM throughout.
In the case of `CC(C)(C#N)CNC(=O)c1cccc(-c2cnc3[nH]c(-c4ccccc4)c(Cl)c3c2)n1` [Compound P-0138, 6-(3-chloro-2-phenyl-1H-pyrrolo[2,3-b]pyridin-5-yl)-N-(2-cyano-2-methyl-propyl)pyridine-2-carboxamide], the IC50 (at FLT3-ITD; in assay [1]) was 0.0001 to 10 µM in each case.
As for `N#CC1(NC(=O)c2cccc(-c3cnc4[nH]c(-c5ccccc5)c(Cl)c4c3)n2)CC1` [Compound P-0139, 6-(3-chloro-2-phenyl-1H-pyrrolo[2,3-b]pyridin-5-yl)-N-(1-cyanocyclopropyl)pyridine-2-carboxamide], the IC50 (on FLT3-ITD; in assay [1]) was 0.0001 to 10 µM throughout.
